The target of assay [1] is T1, Adrenergic receptor alpha-1 (Rattus norvegicus, UniProt P15823+P23944+P43140).
T1 sequence (P15823 whole entry): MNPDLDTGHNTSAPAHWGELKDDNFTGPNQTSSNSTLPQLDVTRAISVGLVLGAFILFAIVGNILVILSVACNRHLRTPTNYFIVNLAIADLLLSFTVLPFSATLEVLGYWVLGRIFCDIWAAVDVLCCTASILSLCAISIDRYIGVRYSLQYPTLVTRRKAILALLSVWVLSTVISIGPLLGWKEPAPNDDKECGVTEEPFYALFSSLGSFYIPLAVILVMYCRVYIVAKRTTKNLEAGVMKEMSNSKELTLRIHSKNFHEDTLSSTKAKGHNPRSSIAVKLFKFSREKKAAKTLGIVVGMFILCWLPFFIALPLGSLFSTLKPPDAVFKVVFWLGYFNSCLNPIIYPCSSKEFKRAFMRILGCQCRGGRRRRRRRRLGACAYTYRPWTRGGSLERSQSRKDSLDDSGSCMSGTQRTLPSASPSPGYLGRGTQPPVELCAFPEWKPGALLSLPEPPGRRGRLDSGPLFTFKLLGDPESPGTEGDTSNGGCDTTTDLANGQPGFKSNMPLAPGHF
T1 sequence (P23944 whole entry): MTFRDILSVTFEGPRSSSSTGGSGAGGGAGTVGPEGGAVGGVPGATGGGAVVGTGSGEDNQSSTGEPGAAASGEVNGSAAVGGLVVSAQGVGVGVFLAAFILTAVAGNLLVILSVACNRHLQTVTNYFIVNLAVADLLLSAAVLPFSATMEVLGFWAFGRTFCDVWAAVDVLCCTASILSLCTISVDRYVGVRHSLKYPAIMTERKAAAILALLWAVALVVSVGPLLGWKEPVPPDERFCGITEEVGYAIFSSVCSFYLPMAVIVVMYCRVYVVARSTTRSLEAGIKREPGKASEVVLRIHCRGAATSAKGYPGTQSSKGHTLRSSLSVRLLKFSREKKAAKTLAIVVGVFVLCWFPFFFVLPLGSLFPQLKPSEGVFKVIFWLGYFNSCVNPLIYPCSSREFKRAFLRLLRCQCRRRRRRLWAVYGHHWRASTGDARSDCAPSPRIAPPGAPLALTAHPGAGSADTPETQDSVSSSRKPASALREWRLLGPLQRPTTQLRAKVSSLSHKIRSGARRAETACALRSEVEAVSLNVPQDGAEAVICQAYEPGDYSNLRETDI
T1 sequence (P43140 whole entry): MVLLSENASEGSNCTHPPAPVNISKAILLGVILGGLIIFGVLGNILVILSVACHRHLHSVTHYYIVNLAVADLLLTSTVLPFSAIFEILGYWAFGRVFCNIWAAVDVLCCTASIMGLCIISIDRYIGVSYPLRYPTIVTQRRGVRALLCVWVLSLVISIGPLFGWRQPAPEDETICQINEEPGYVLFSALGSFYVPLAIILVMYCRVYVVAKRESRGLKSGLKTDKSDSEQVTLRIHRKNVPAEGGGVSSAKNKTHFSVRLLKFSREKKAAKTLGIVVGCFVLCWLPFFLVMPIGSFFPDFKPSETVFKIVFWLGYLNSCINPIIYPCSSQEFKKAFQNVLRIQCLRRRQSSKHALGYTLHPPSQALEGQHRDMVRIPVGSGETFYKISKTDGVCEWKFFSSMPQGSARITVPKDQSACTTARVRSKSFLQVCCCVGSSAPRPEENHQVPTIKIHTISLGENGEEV
As to the kind of experiment: Displacement of [3H]prazosin from adrenergic alpha1 receptor in rat brain cortex. Format: tissue-based. (Loss of bound radioactivity is the signal in a displacement assay; it reports binding, not function.)

In assay [2] the target is T2, Adrenergic receptor alpha-2 (Rattus norvegicus, UniProt P22086+P19328+P22909).
T2 sequence (P22086 whole entry): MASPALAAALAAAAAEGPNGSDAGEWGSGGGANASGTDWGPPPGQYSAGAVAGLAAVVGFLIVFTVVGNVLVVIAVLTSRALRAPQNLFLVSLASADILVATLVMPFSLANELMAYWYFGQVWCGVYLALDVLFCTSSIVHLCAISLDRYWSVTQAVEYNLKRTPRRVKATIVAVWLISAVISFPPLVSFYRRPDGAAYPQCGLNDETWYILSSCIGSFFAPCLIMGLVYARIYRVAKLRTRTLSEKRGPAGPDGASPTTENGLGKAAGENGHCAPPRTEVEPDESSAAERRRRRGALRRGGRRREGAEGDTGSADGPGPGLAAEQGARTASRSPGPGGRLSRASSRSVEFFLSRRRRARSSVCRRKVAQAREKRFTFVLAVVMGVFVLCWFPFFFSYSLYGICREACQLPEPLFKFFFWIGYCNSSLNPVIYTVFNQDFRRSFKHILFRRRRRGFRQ
T2 sequence (P19328 whole entry): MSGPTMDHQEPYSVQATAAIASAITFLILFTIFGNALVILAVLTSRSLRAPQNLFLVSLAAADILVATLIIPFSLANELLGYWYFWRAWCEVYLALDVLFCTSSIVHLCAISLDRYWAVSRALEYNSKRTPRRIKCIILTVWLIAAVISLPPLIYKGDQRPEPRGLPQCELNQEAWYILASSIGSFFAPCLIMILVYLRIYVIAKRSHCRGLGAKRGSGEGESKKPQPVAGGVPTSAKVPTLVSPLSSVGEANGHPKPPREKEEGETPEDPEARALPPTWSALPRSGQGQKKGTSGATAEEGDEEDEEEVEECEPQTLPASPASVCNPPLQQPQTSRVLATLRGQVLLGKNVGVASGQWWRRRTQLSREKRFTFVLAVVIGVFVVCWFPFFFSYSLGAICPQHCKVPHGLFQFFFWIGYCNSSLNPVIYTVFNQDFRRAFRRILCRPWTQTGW
T2 sequence (P22909 whole entry): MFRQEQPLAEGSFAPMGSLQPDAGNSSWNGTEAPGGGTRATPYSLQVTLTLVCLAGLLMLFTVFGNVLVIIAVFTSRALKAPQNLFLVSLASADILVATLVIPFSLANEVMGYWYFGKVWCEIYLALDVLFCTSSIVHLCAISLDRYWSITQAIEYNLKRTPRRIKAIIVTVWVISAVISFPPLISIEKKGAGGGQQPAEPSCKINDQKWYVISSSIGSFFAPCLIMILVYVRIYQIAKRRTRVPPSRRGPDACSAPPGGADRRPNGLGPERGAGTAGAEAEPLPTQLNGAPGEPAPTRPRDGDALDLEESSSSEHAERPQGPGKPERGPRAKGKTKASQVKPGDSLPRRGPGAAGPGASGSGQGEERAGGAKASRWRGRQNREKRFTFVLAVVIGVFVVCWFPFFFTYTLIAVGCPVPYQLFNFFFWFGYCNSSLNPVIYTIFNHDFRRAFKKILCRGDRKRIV
The assay can be described thus: Displacement of [3H]rauwolscine from adrenergic alpha2 receptor in rat brain cortex. Format: tissue-based.

From ChEMBL document CHEMBL3739370, “Synthesis and evaluation of amide, sulfonamide and urea benzisoxazole derivatives as potential atypical antipsychotics” (Medchemcomm, 2015) come the findings set out here.

One may read the Ki as a measure of affinity in units of concentration, obtained from inhibition or displacement. A low value points to a stronger hold on the target. For `O=S(=O)(c1ccc(C(F)(F)F)cc1)N1CCC(CN2CCC(c3noc4cc(F)ccc34)CC2)CC1`, the Ki in assay [1] was determined as 1098.2 nM; in assay [2], 568.3 nM.

With `O=[N+]([O-])c1ccc(S(=O)(=O)N2CCC(CN3CCC(c4noc5cc(F)ccc45)CC3)CC2)cc1`, the Ki stood at 2356.2 nM in assay [1] and 967.3 nM in assay [2].
